Measurements from US12479847B2 (DANA-FARBER CANCER INSTITUTE, INC., priority 2019, dated 2025).
Like-named read-outs stand apart in the source and are kept apart here.

Tests used:
Experiment in all cases: KINOMEscan (ScanMAX) kinase profiling
Format in all cases: binding
[1] = target: T1, panel of 468 kinases (Homo sapiens, UniProt Q96GD4); conditions: AURKB; 1 μM; read-out: % control
T1 construct: purchased KINOMEscan (ScanMAX) service

[2] = target: T2, panel of 468 kinases (Homo sapiens, UniProt P00519); conditions: 1 μM, read-out: % control
T2 construct: purchased KINOMEscan (ScanMAX) service

[3] = target: T3, panel of 468 kinases (Homo sapiens, UniProt P42336, Q546K); conditions: PIK3CA(Q546K); 1 μM; read-out: % control
T3 construct: purchased KINOMEscan (ScanMAX) service
T3 sequence (P42336 whole entry Q546K): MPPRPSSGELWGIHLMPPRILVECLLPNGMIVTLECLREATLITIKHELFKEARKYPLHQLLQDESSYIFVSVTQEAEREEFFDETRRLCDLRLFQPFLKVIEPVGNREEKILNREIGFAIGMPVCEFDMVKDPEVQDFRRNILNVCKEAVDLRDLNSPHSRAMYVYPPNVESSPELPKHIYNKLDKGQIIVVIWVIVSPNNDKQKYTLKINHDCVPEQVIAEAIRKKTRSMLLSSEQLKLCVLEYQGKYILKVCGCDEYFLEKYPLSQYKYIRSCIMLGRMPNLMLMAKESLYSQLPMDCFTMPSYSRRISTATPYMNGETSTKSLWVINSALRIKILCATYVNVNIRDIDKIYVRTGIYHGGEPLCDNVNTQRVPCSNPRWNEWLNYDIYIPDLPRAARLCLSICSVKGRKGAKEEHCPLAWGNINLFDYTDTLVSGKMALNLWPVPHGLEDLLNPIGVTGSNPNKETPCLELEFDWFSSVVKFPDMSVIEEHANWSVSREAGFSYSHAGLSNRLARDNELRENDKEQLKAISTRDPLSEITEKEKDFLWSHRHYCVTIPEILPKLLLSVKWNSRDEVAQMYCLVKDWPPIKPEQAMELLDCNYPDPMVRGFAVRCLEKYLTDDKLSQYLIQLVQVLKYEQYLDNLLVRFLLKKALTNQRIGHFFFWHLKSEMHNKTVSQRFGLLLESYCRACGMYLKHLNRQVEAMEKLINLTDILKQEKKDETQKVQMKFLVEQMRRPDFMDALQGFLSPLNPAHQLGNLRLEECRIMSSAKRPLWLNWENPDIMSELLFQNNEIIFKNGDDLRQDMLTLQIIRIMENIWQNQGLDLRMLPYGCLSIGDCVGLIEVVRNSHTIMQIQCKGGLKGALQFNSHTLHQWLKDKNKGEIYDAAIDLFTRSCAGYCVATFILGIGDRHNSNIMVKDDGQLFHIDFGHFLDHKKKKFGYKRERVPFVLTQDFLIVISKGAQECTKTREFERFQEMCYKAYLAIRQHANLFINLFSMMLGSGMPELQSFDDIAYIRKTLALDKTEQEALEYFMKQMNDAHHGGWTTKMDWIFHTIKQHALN

[4] = target: T4, panel of 468 kinases (Homo sapiens, UniProt Q13976); conditions: PRKG1; 1 μM; read-out: % control
T4 construct: purchased KINOMEscan (ScanMAX) service
T4 sequence (Q13976 1-671): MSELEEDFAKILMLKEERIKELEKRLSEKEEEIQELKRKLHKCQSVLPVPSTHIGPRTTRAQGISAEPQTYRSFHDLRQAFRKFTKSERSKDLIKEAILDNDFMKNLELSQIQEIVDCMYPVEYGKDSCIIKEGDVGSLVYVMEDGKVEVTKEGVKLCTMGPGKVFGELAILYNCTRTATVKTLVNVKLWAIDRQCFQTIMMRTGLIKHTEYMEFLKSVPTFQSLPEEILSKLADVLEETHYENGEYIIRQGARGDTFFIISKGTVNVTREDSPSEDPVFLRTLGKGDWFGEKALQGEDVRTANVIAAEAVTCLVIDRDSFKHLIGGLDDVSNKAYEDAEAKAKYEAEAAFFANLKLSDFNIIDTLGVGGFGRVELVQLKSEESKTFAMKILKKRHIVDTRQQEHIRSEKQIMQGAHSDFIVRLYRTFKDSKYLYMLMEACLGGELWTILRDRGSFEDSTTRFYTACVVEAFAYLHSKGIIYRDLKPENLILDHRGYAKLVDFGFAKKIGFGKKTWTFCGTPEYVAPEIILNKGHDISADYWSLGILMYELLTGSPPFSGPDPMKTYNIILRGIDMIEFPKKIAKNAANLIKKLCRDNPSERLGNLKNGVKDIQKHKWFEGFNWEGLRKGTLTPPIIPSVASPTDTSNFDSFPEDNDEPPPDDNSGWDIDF

[5] = target: T5, panel of 468 kinases (Homo sapiens, UniProt Q9BRS2); conditions: RIOK1; 1 μM; read-out: % control
T5 construct: purchased KINOMEscan (ScanMAX) service
T5 sequence (Q9BRS2 1-568): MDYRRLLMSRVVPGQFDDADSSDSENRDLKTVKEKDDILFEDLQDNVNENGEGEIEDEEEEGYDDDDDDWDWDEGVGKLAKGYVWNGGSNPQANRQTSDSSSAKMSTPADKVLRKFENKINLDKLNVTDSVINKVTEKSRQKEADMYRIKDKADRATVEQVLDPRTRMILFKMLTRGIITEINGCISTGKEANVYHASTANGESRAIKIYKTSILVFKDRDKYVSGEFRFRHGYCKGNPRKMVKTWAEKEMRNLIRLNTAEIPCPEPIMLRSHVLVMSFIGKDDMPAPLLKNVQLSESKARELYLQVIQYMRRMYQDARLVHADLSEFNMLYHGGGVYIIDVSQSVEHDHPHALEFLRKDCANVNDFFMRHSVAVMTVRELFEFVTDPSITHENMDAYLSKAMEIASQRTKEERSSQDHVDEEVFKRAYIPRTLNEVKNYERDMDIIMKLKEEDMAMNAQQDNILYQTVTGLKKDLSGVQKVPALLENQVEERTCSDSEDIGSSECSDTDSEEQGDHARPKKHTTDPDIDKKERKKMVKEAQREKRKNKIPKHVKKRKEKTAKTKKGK

[6] = target: T6, panel of 468 kinases (Homo sapiens, UniProt P53671); conditions: LIMK2; 1 μM; read-out: % control
T6 construct: purchased KINOMEscan (ScanMAX) service
T6 sequence (P53671 whole entry): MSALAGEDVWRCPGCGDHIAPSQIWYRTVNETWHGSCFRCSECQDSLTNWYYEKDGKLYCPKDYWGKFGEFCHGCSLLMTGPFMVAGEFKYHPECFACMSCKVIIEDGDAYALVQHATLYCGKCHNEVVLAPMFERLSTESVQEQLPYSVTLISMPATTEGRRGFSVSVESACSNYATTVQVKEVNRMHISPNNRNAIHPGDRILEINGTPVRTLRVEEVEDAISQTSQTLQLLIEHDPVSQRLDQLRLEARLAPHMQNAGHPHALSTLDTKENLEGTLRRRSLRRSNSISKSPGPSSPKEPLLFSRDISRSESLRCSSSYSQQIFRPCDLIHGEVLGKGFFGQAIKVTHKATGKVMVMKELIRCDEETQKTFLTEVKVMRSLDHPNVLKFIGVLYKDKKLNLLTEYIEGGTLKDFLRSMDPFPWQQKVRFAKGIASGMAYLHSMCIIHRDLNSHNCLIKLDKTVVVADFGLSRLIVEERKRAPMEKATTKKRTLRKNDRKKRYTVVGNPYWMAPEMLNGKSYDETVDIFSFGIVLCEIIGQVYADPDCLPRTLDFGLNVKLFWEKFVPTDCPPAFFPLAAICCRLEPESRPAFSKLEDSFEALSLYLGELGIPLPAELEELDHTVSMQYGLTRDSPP

[7] = target: T7, panel of 468 kinases (Homo sapiens, UniProt P00519, H396P); conditions: 1 μM, read-out: % control
T7 construct: purchased KINOMEscan (ScanMAX) service

[8] = target: T8, panel of 468 kinases (Homo sapiens, UniProt Q9BZL6); conditions: PRKD2; 1 μM; read-out: % control
T8 construct: purchased KINOMEscan (ScanMAX) service
T8 sequence (Q9BZL6 1-878): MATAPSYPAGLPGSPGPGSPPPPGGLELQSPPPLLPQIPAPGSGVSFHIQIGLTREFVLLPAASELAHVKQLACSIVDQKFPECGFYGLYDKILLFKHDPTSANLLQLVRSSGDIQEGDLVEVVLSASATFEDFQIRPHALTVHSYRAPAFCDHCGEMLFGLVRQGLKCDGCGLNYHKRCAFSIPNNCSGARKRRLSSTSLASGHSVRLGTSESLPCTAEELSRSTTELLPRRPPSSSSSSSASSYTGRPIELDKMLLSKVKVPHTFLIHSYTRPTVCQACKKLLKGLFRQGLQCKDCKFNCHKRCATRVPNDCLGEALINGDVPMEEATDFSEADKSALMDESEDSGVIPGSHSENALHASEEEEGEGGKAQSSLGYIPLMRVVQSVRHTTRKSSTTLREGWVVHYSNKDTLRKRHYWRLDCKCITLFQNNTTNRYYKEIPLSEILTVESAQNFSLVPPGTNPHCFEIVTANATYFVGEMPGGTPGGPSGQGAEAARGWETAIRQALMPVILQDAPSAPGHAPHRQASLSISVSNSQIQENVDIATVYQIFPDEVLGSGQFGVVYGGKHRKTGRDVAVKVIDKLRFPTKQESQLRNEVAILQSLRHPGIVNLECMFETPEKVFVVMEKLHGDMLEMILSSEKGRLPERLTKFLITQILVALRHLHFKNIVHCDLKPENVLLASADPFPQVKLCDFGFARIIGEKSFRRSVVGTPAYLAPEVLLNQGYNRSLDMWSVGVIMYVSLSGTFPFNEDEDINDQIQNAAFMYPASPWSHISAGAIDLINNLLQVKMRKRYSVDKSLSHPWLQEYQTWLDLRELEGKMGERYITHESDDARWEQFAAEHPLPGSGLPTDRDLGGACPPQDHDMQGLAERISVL

T1 sequence (Q96GD4 whole entry): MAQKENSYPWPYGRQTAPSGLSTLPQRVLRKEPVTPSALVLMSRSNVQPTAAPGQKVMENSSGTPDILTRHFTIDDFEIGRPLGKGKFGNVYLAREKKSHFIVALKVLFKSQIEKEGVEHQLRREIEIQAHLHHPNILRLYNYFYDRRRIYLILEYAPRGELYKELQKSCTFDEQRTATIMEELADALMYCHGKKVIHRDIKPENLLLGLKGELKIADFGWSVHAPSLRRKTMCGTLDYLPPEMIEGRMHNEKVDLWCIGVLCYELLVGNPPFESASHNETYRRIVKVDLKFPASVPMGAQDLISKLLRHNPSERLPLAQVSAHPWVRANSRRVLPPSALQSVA

SMILES | remaining binding at 1 µM [1] | remaining binding at 1 µM ([2]; ABL1-nonphosphorylated) | remaining binding at 1 µM ([2]; ABL1-phosphorylated) | remaining binding at 1 µM [3] | remaining binding at 1 µM [4] | remaining binding at 1 µM [5] | remaining binding at 1 µM [6] | remaining binding at 1 µM ([7]; ABL1(H396P)-nonphosphorylated) | remaining binding at 1 µM ([7]; ABL1(H396P)-phosphorylated) | remaining binding at 1 µM [8]
CNc1nc(Nc2ccc(S(=O)(=O)N3CCC(N4CCOCC4)CC3)cc2OC)nc2[nH]cc(Cl)c12 [Compound 12, 5-chloro-N2-(2-methoxy-4-((4-morpholinopiperidin-1-yl)sulfonyl)phenyl)-N4-methyl-7H-pyrrolo[2,3-d]pyrimidine-2,4-diamine] | 73% | 80% | 72% | 50% | 100% | 100% | 100% | 100% | 73% | 37%
CNc1nc(Nc2ccc(C(=O)N3CCC(N4CCOCC4)CC3)c3c2OCO3)nc2[nH]cc(Cl)c12 [Compound 75, (7-((5-chloro-4-(methylamino)-7H-pyrrolo[2,3-d]pyrimidin-2-yl)amino)benzo[d][1,3]dioxol-4-yl)(4-morpholinopiperidin-1-yl)methanone] | 57% | 94% | 80% | 65% | 100% | 48% | 99% | 99% | 82% | 2.2%
CNc1nc(Nc2ccc(P3(=O)CCN(C4CCOCC4)CC3)cc2OC)nc2[nH]cc(Cl)c12 [Compound 77, 4-(4-((5-chloro-4-(methylamino)-7H-pyrrolo[2,3-d]pyrimidin-2-yl)amino)-3-methoxyphenyl)-1-(tetrahydro-2H-pyran-4-yl)-1,4-azaphosphinane 4-oxide] | 74% | 92% | 80% | 46% | 100% | 98% | 84% | 100% | 75% | 14%
